In patent US9828576B2, “Cell culture” (National University of Singapore, priority 2012, dated 2017):
Entries after “also recorded” stand apart in the source; their conditions may differ.

Tested on: bile canaliculi of hepatocyte couplets
Test: Bile canaliculi (BC) morphology of hepatocyte couplets in F/F microwells after drug treatment (F-actin staining, confocal imaging)
Assay type: cell-based, rat
Settings: for degree of folding r of BC / vertical aspect ratio i of BC: F/F microwells with drug, compared with control F/F microwells (FIG. 6D); for BC morphology: hepatocytes in F/F microwells
Description: For control, hepatocytes cultured for 48 hours in microwells were fixed in 4% para-formaldehyde (PFA) for 30 minutes. For ±Blebbistatin (Merck, 203390) or Y27632 (Sigma, Y0503) treatments, drugs were added 4 h before fixation, while soluble RGD (Sigma, G5646) was incubated with hepatocytes overnight. After fixation, the cells were rinsed by PBS and permeabilized for 30 min in TBST (0.2% Triton-X in TBS). The permeabilized cells were blocked with 1% BSA in TBST for 4 h and incubated overnight with pan-Cadherin antibody (sigma, C1821) and anti-ZO-1 antibody (life technology, 61-7300) at 4° C. as instructed in manuals. After rinsed with TBST, the cells were incubated in secondary antibodies (Life Technology, A10040 and A-31571) and phalloidin-alexa 488 (Life Technology, A12379) for 1 h in dark at room temperature. After rinsed with TBST again and incubated shortly with DAPI (Sigma, D9564), cells were mounted in mounting medium (DAKO, S3023). 3D stack of confocal microscopy images were acquired with 100×NA1.4 oil lens on a Nikon A1R Confocal Microscope.
The selected slices of image stacks were reconstructed as maximum intensity projection or orthogonal section view. Manual segmentation was applied based on F-actin signal, because F-actin provides a better definition of BC boundaries, compared with ZO-1 (FIG. 11). Several features, such as parameter, thickness, horizontal spin size and area of bile canaliculi, were extracted subsequently.
When cells adhered to the side of microwell only (F/P configuration), hepatocytes positioned side by side (FIG. 5C, 5D). […] To confirm the importance of cell-ECM adhesion in obtaining flat tubular BC, we treated the hepatocytes in F/F microwells on day 1 with soluble RGD peptides (250 μM, overnight) that antagonized the integrin-mediated cell-ECM adhesion while keeping the chemical signalling unperturbed. Indeed, as cells detached from the microwells, their BC rounded up to be morphologically equivalent to those observed in the P/F case (FIG. 6A).
Therefore, we tested whether actomyosin contractility was required for the differential control of BC morphology by the spatial organization of cell-ECM adhesion. […] The resulting morphologies were similar to those obtained in the P/F configuration (FIG. 6B, 6C).
The BC morphologies in different conditions were quantitatively assessed by two dimensionless parameters: the degree of folding and vertical aspect ratio. The degree of folding r=P^2/(4πA) was evaluated by measuring the ratio of the BC projected perimeter P to the projected area A. This morphological index r ranges from 1 (circle) upward (folded tubular structures). The vertical aspect ratio i was calculated as the ratio of the BC maximal height over maximal elongation in the XY plane. Higher vertical aspect ratio represents a thicker BC.

Row | Structure (SMILES) | degree of folding r of BC | vertical aspect ratio i of BC | BC morphology (Y27632 10 μM for 4 hours) | BC morphology (blebbistatin 100 μM for 4 hours) | BC morphology (blebbistatin 100 μM for 4 hours, listed as blebbistatin +/−)
1 | C[C@@H](N)[C@H]1CC[C@H](C(=O)Nc2ccncc2)CC1 [Y27632] | lower | higher | rounded up; also recorded: converted tubular BC into spherical ones | – | –
2 | Cc1ccc2c(c1)C(=O)C1(O)CCN(c3ccccc3)C1=N2 (stereo not shown) [blebbistatin] | lower | higher | – | rounded up | converted tubular BC into spherical ones
